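Grown in 96-well plates, cells were treated for 48 hours with each compound at five concentrations. Insufficient inhibition: endpoint recorded as highest concentration tested. GI50 marks 50% less growth.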 Calls of active or inactive are those of the source. Cut-off read from the data, not from the text of the source: active = GI50 up to about 1.1 µM and inactive = higher.
Tests used:
Test in all cases: DTP human tumour cell line panel, 48 h
SNB-19 = tested on: SNB-19
K562 = tested on: K562
PC-3 = tested on: PC-3
M14 = tested on: M14
OVCAR-8 = tested on: OVCAR-8
SF-268 = tested on: SF-268
SF-295 = tested on: SF-295
Malme-3M = tested on: Malme-3M
SK-MEL-28 = tested on: SK-MEL-28
DU-145 = tested on: DU-145
MDA-MB-435 = tested on: MDA-MB-435
SR = tested on: SR
NCI-H23 = tested on: NCI-H23
OVCAR-3 = tested on: OVCAR-3
OVCAR-5 = tested on: OVCAR-5
LOX IMVI = tested on: LOX IMVI
UACC-62 = tested on: UACC-62
RPMI-8226 = tested on: RPMI-8226
ACHN = tested on: ACHN
MOLT-4 = tested on: MOLT-4
HCT-15 = tested on: HCT-15
NCI-H522 = tested on: NCI-H522
COLO 205 = tested on: COLO 205
OVCAR-4 = tested on: OVCAR-4
UO-31 = tested on: UO-31
KM12 = tested on: KM12
SK-MEL-2 = tested on: SK-MEL-2
A549 = tested on: A549
SK-MEL-5 = tested on: SK-MEL-5
BT-549 = tested on: BT-549
EKVX = tested on: EKVX
UACC-257 = tested on: UACC-257
NCI-H460 = tested on: NCI-H460
SF-539 = tested on: SF-539
TK-10 = tested on: TK-10
HCT-116 = tested on: HCT-116
RXF 393 = tested on: RXF 393
MCF7 = tested on: MCF7
SW-620 = tested on: SW-620
NCI/ADR-RES = tested on: NCI/ADR-RES
SN12C = tested on: SN12C
Hs-578T = tested on: Hs-578T
IGROV-1 = tested on: IGROV-1
CAKI-1 = tested on: CAKI-1
HT-29 = tested on: HT-29
CCRF-CEM = tested on: CCRF-CEM
HOP-92 = tested on: HOP-92
MDA-N = tested on: MDA-N
786-0 = tested on: 786-0
HCC 2998 = tested on: HCC 2998
U-251 = tested on: U-251
MDA-MB-231 = tested on: MDA-MB-231
SNB-75 = tested on: SNB-75
SK-OV-3 = tested on: SK-OV-3
A498 = tested on: A498
HL-60 = tested on: HL-60
NCI-H226 = tested on: NCI-H226
HOP-62 = tested on: HOP-62
T47D = tested on: T47D

With `FC(F)(F)c1ccc(C2=N/S(c3ccccc3)=N\C(c3ccc(C(F)(F)F)cc3)=N/S(c3ccccc3)=N\2)cc1` (stereo not given) the GI50 (SNB-19) was > 100 µM (inactive), the GI50 (K562) was > 100 µM (inactive) and the GI50 (PC-3) was > 100 µM (inactive). The GI50 (M14) was > 100 µM (inactive), the GI50 (OVCAR-8) was > 100 µM (inactive) and the GI50 (SF-268) was > 100 µM (inactive). The GI50 (SF-295) was > 100 µM (inactive), the GI50 (Malme-3M) was > 100 µM (inactive) and the GI50 (SK-MEL-28) was > 100 µM (inactive). For the same molecule, the GI50 (DU-145) was > 100 µM (inactive), the GI50 (MDA-MB-435) was > 100 µM (inactive) and the GI50 (SR) was > 100 µM (inactive). The GI50 (NCI-H23) was > 100 µM (inactive), the GI50 (OVCAR-3) was > 100 µM (inactive) and the GI50 (OVCAR-5) was > 100 µM (inactive). The GI50 (LOX IMVI) was > 100 µM (inactive), the GI50 (UACC-62) was > 100 µM (inactive) and the GI50 (RPMI-8226) was > 100 µM (inactive). For the same molecule, the GI50 (ACHN) was > 100 µM (inactive), the GI50 (MOLT-4) was > 100 µM (inactive) and the GI50 (HCT-15) was > 100 µM. For the same molecule, the GI50 (NCI-H522) was > 100 µM (inactive), the GI50 (COLO 205) was > 100 µM (inactive) and the GI50 (OVCAR-4) was > 100 µM (inactive). The GI50 (UO-31) was > 100 µM (inactive), the GI50 (KM12) was > 100 µM (inactive) and the GI50 (SK-MEL-2) was > 100 µM (inactive). For the same molecule, the GI50 (A549) was > 100 µM (inactive), the GI50 (SK-MEL-5) was > 100 µM (inactive) and the GI50 (BT-549) was > 100 µM (inactive). The GI50 (EKVX) was > 100 µM (inactive), the GI50 (UACC-257) was > 100 µM (inactive) and the GI50 (NCI-H460) was > 100 µM (inactive). For the same molecule, the GI50 (SF-539) was > 100 µM (inactive), the GI50 (TK-10) was > 100 µM (inactive) and the GI50 (HCT-116) was > 100 µM (inactive). For the same molecule, the GI50 (RXF 393) was > 100 µM (inactive), the GI50 (MCF7) was > 100 µM (inactive) and the GI50 (SW-620) was > 100 µM (inactive). The GI50 (NCI/ADR-RES) was > 100 µM (inactive), the GI50 (SN12C) was > 100 µM (inactive) and the GI50 (Hs-578T) was > 100 µM (inactive). The GI50 (IGROV-1) was > 100 µM (inactive), the GI50 (CAKI-1) was > 100 µM (inactive) and the GI50 (HT-29) was > 100 µM (inactive). For the same molecule, the GI50 (CCRF-CEM) was > 100 µM (inactive), the GI50 (HOP-92) was > 100 µM (inactive) and the GI50 (MDA-N) was > 100 µM (inactive). For the same molecule, the GI50 (786-0) was 80 µM (inactive), the GI50 (HCC 2998) was > 100 µM (inactive) and the GI50 (U-251) was > 100 µM (inactive). The GI50 (MDA-MB-231) was > 100 µM (inactive), the GI50 (SNB-75) was > 100 µM (inactive) and the GI50 (SK-OV-3) was > 100 µM (inactive).

With `Nc1ccn(C2OC(COP(=O)(O)O)C(O)C2O)c(=O)n1` (stereo not given) the GI50 (SNB-19) was 23.8 µM (inactive), the GI50 (K562) was 24 µM (inactive) and the GI50 (PC-3) was > 100 µM (inactive). The GI50 (M14) was 0.982 µM (active), the GI50 (OVCAR-8) was 2.47 µM (inactive) and the GI50 (SF-268) was 10.9 µM (inactive). The GI50 (SF-295) was 33 µM (inactive), the GI50 (DU-145) was 1.19 µM (inactive) and the GI50 (MDA-MB-435) was 14.5 µM (inactive). For the same molecule, the GI50 (SR) was 3.39 µM (inactive), the GI50 (NCI-H23) was 8.83 µM (inactive) and the GI50 (OVCAR-3) was > 100 µM (inactive). The GI50 (OVCAR-5) was > 100 µM (inactive), the GI50 (LOX IMVI) was 3.08 µM (inactive) and the GI50 (UACC-62) was 10.9 µM (inactive). The GI50 (RPMI-8226) was > 100 µM (inactive), the GI50 (ACHN) was 1.21 µM (inactive) and the GI50 (MOLT-4) was 0.0497 µM (active). The GI50 (HCT-15) was 45.5 µM, the GI50 (NCI-H522) was 20.2 µM (inactive) and the GI50 (COLO 205) was > 55.3 µM (inactive). For the same molecule, the GI50 (OVCAR-4) was > 100 µM (inactive), the GI50 (UO-31) was 6.98 µM (inactive) and the GI50 (KM12) was > 100 µM (inactive). The GI50 (SK-MEL-2) was > 100 µM (inactive), the GI50 (A549) was 0.422 µM (active) and the GI50 (SK-MEL-5) was 16.6 µM (inactive). For the same molecule, the GI50 (BT-549) was > 100 µM (inactive), the GI50 (EKVX) was > 100 µM (inactive) and the GI50 (UACC-257) was > 63.4 µM (inactive). For the same molecule, the GI50 (NCI-H460) was 0.32 µM (active), the GI50 (SF-539) was 8.05 µM (inactive) and the GI50 (TK-10) was > 100 µM (inactive). For the same molecule, the GI50 (HCT-116) was 1.8 µM (inactive), the GI50 (RXF 393) was 11.1 µM (inactive) and the GI50 (MCF7) was 1.31 µM (inactive). The GI50 (SW-620) was > 56.9 µM (inactive), the GI50 (A498) was 26.8 µM (inactive) and the GI50 (NCI/ADR-RES) was 6.38 µM (inactive). For the same molecule, the GI50 (SN12C) was 7.89 µM (inactive), the GI50 (IGROV-1) was 40.7 µM (inactive) and the GI50 (HL-60) was 0.205 µM (active). The GI50 (CAKI-1) was 14.4 µM (inactive), the GI50 (NCI-H226) was 3.18 µM (inactive) and the GI50 (HT-29) was 11.4 µM (inactive). For the same molecule, the GI50 (HOP-62) was 0.951 µM (active), the GI50 (CCRF-CEM) was < 0.01 µM (active) and the GI50 (HOP-92) was 17.8 µM (inactive). The GI50 (MDA-N) was 37.8 µM (inactive), the GI50 (786-0) was 5.31 µM (inactive) and the GI50 (HCC 2998) was > 100 µM (inactive). For the same molecule, the GI50 (T47D) was 42 µM (inactive), the GI50 (U-251) was 14.3 µM (inactive) and the GI50 (MDA-MB-231) was > 100 µM (inactive). The GI50 (SNB-75) was 28.8 µM (inactive) and the GI50 (SK-OV-3) was 42.1 µM (inactive).
